Source: patent publication US20080227780A1, “SOLUBLE EPOXIDE HYDROLASE INHIBITORS” (Arete Therapeutics, Inc., priority 2007, published 2008)

Tested on: soluble epoxide hydrolase (sEH)
Assay: Fluorescent assay for soluble epoxide hydrolase (CMNPC substrate), percent inhibition at the recited concentration
Assay type: biochemical
Procedure, shortened: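 Purified recombinant baculovirus-expressed sEH in 25 mM Bis/Tris HCl pH 7.0 with 0.1 mg/mL BSA; inhibitor serially diluted and preincubated with enzyme 5 min at 30 °C. Reaction started with 5 μM (final) substrate; fluorescence (ex 330/em 465 nm) read every 30 s for 10 min, and velocities give % inhibition.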

Structure (SMILES) | % inh. (Inhibition Conc. 500 nM) | % inh. (Inhibition Conc. 50 nM) | further results
CNS(=O)(=O)c1cccc(C(=O)N2CCC(NC(=O)Cc3ccc(Cl)cc3)CC2)c1 [Compound 7-85, 2-(4-chlorophenyl)-N-(1-(3-(N-methyl-sulfamoyl)benzoyl)-piperidin-4-yl)acetamide] | 73% |  | 
O=C(NC1CCN(S(=O)(=O)c2ccc(C(F)(F)F)cc2)CC1)NC12CC3CC(CC(C3)C1)C2 [Compound 7-36, 1-adamantyl-3-(1-(4-(trifluoromethyl)phenylsulfonyl)piperidin-4-yl)urea] |  | 99% | 
O=C(Nc1ccc(OC(F)(F)F)cc1)NC1CCN(S(=O)(=O)CCCO)CC1 [Compound 7-75, 1-(1-(3-hydroxypropylsulfonyl)piperidin-4-yl)-3-(4-(trifluoromethoxy)phenyl)urea] |  |  | % inh. (Inhibition Conc. 200 nM): 100%
CC(=O)N1CCC(NC(=O)Nc2ccc(Oc3ccccc3)cc2)CC1 [Compound 7-12, 1-(1-acetylpiperidin-4-yl)-3-(4-phenoxyphenyl)urea] | 95% |  | 
COC(=O)N1CCC(NC(=O)Nc2ccc(C(F)(F)F)cc2)CC1 [Compound 7-14, methyl 4-(3-(4-(trifluoromethyl)phenyl)ureido)piperidine-1-carboxylate] |  | 92% | 
COc1ccc(NC(=O)NC2CCN(C(C)=O)CC2)cn1 [Compound 6-11, 1-(1-acetylpiperidin-4-yl)-3-(6-methoxypyridin-3-yl)urea] |  |  | % inh. (Inhibition Conc. 2000 nM): 44%
